Consider 31 molecules from patent US9586951B2 (FUJIFILM Corporation, priority 2013, dated 2017).

A value given as a limit tells only on which side of the number the result lay.

One assay deals with T1, ATM (Homo sapiens, UniProt Q13315).
T1 construct: detecting phosphorylation of Chk2 in a human non-small cell lung cancer cell line NCI-H460 (ATCC company); host or cells: NCI-H460 human non-small cell lung cancer cells
T1 sequence (Q13315 whole entry): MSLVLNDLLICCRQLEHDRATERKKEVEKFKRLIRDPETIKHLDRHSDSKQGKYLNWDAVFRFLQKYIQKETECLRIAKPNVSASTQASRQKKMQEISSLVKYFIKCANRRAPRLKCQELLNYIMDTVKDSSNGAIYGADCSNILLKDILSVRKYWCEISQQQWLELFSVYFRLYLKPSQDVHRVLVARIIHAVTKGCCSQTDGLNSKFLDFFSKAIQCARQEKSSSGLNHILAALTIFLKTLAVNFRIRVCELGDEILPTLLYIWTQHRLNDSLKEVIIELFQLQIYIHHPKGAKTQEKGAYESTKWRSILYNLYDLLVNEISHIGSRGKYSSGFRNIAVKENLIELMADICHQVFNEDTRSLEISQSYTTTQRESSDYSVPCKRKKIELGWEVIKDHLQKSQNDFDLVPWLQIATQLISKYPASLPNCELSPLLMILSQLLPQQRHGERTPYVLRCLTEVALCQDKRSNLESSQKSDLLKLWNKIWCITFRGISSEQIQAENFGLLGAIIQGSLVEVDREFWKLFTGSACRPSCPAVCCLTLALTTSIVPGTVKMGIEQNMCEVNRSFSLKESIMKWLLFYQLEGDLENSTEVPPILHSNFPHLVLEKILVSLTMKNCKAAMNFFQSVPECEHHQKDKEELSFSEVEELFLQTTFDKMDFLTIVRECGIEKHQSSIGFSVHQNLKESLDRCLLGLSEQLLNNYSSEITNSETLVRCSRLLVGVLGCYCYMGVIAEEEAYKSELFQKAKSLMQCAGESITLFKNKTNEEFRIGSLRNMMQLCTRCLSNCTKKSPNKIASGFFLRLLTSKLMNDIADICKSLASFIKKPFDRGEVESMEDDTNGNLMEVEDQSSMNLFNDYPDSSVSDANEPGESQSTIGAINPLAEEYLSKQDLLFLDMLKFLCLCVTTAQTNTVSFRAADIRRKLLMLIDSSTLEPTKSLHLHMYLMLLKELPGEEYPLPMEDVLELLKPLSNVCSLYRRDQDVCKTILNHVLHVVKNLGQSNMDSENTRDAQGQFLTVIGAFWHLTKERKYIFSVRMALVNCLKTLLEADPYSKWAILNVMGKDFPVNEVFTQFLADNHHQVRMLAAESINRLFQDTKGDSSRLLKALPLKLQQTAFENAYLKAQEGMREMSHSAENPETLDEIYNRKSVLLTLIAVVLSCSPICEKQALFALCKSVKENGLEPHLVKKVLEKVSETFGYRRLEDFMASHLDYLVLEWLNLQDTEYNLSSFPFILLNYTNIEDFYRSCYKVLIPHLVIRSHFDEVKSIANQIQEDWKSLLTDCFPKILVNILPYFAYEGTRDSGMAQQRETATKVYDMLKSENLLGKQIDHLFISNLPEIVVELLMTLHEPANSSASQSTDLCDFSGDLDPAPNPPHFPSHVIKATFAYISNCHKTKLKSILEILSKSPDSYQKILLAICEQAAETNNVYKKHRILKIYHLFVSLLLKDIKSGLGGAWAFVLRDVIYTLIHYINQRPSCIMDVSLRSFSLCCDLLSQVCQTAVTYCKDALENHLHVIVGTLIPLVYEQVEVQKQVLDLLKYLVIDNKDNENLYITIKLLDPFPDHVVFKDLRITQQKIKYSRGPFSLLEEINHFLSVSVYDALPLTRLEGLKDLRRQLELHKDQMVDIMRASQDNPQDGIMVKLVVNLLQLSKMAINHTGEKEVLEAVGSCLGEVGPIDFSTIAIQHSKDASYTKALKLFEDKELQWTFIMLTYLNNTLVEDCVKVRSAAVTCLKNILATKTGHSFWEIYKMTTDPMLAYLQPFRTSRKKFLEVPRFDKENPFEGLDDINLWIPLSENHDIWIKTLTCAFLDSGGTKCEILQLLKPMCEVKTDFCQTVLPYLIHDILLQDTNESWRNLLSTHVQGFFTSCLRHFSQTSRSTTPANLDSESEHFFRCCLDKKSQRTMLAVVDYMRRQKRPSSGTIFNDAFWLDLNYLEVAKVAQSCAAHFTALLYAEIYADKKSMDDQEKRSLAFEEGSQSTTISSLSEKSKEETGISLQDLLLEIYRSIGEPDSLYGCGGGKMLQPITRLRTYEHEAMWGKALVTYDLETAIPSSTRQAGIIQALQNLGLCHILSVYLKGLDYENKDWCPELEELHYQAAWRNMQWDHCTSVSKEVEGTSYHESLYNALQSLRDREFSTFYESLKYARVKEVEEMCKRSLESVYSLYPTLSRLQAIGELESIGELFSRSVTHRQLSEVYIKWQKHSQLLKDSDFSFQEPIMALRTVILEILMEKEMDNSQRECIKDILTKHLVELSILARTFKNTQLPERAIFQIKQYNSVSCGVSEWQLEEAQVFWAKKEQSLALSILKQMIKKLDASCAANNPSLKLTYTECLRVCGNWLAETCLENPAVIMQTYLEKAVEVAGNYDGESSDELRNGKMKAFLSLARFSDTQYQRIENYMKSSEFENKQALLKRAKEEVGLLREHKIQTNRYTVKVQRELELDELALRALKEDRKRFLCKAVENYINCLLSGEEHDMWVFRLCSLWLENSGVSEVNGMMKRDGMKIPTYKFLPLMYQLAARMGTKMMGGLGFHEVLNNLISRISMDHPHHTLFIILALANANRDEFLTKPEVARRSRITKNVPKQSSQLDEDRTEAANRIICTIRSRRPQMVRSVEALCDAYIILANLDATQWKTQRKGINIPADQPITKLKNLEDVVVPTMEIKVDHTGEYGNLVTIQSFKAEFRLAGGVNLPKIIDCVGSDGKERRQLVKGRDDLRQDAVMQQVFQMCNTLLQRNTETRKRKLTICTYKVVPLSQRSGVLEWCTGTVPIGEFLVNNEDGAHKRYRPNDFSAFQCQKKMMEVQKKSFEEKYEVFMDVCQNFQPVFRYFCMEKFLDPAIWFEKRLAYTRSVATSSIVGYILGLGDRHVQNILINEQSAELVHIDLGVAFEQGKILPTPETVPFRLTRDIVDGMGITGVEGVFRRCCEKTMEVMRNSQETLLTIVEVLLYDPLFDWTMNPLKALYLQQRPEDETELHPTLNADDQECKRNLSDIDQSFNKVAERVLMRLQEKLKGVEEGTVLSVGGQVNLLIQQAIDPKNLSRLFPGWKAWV
The assay can be described thus: ATM inhibition test (phosphorylation of Chk2 generated by ionizing radiation, AlphaScreen SureFire). It is filed as cell-based. Conditions: ATM inhibitory activity, phosphorylated Chk2 in NCI-H460 cells, ionizing radiation 8Gy, 1 hour after test compound treatment. In outline: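 In NCI-H460 cells, radiation-triggered Chk2 phosphorylation (8Gy, 1 h) is detected by AlphaScreen SureFire following 1 h compound exposure.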
Background: Alpha assays give light when donor and acceptor beads are brought close together.
For `O=c1cc(N2CCOCC2)cc(-c2cccc3c2Sc2ccc(N4CC4CN4CCOCC4)cc2S3)[nH]1` (stereo not shown) [Example 1-38, 4-morpholino-6-(7-(2-(morpholinomethyl)aziridin-1-yl)thianthren-1-yl)pyridin-2(1H)-one], the IC50 was in the range of 0.1 to 0.5 µM.

Staying with this assay, now noted: phosphorylated Chk2 in NCI-H460 cells, ionizing radiation 8Gy, 1 hour after test compound treatment; read-out: ATM inhibitory activity.
Regarding `CN(C)c1ccc(CN2CCC(Nc3ccc4c(c3)Cc3cccc(-c5cc(N6CCOCC6)cc(=O)[nH]5)c3O4)CC2)cn1` [Example 2-28-9, 6-(7-((1-((6-(Dimethylamino)pyridin-3-yl)methyl)piperidin-4-yl)amino)-9H-xanthen-4-yl)-4-morpholino pyridin-2(1H)-one], the IC50 is 0.1 to 0.5 µM.
In the case of `Cc1ccc(C(Nc2ccc3c(c2)Sc2cccc(-c4cc(N5CCOCC5)cc(=O)[nH]4)c2S3)[C@@H]2CN(C)CCO2)nc1` (single isomer, unassigned) [Example 1-56-11], the IC50 was under 0.1 µM.
Same read-out and setting: the result for `COc1nccc(C(C)Nc2ccc3c(c2)Cc2cccc(-c4cc(N5CCOCC5)cc(=O)[nH]4)c2O3)n1` (stereo not shown) [Example 2-14-63, 6-(7-((1-(2-Methoxypyrimidin-4-yl)ethyl)amino)-9H-xanthen-4-yl)-4-morpholino pyridin-2(1H)-one] reads 0.1 to 0.5 µM.
Still for that read-out and setting: the value for `CC(Nc1ccc2c(c1)Sc1cccc(-c3cc(N4CCOCC4)cc(=O)[nH]3)c1S2)c1ccnc(Cl)n1` (stereo not shown) [Example 1-12-81, 6-(7-((1-(2-Chloropyrimidin-4-yl)ethyl)amino)thianthren-1-yl)-4-morpholino pyridin-2 (1H)-one] was 0.1 to 0.5 µM.
On the same count and under the same terms, the value for `COc1ccnc(C(C)Nc2ccc3c(c2)Cc2cccc(-c4cc(N5CCOCC5)cc(=O)[nH]4)c2O3)c1` (single isomer, unassigned) [Example 2-14-86-1, 6-(7-((1-(4-methoxypyridin-2-yl)ethyl)amino)-9H-xanthen-4-yl)-4-morpholinopyridin-2(1H)-one] was 0.1 to 0.5 µM; that for `COc1nccc(C(C)Nc2ccc3c(c2)Sc2cccc(-c4cc(N5CCOCC5)cc(=O)[nH]4)c2S3)n1` (stereo not shown) [Example 1-12-88, 6-(7-((1-(2-Methoxypyrimidin-4-yl)ethyl)amino)thianthren-1-yl)-4-morpholino pyridin-2(1H)-one] was 0.1 to 0.5 µM.
For the molecule `CCN(C)CCC(Nc1ccc2c(c1)Sc1cccc(-c3cc(N4CCOCC4)cc(=O)[nH]3)c1S2)c1ccc(C)cn1` (single isomer, unassigned) [Example 1-51-9, 6-(7-((3-(Ethyl(methyl)amino)-1-(5-methylpyridin-2-yl)propyl)amino)thianthren-1-yl)-4-morpholino pyridin-2 (1H)-one], the IC50 was under 0.1 µM.
Still for that read-out and setting: the result for `COC[C@@H](Nc1ccc2c(c1)Sc1cccc(-c3cc(N4CCOCC4)cc(=O)[nH]3)c1S2)C(=O)O` [Example 1-49, (R)-3-methoxy-2-((6-(4-morpholino-6-oxo-1,6-dihydropyridin-2-yl)thianthren-2-yl)amino)propionic acid] reads 0.5 to 2 µM; that for `CN(C)c1ncc(CN2CCC(Nc3ccc4c(c3)Cc3cccc(-c5cc(N6CCOCC6)cc(=O)[nH]5)c3O4)CC2)cn1` [Example 2-28-13, 6-(7-((1-((2-(Dimethylamino)pyrimidin-5-yl)methyl)piperidin-4-yl)amino)-9H-xanthen-4-yl)-4-morpholino pyridin-2(1H)-one], 0.1 to 0.5 µM.
On the same count and under the same terms, the result for `O=c1cc(N2CCOCC2)cc(-c2cccc3c2Oc2ccc(NCC4CCN(c5ccncc5)CC4)cc2C3)[nH]1` [Example 2-21-5] reads 0.5 to 2 µM; that for `Nc1ncccc1CNc1ccc2c(c1)Cc1cccc(-c3cc(N4CCOCC4)cc(=O)[nH]3)c1O2` [Example 2-2-21, 6-(7-(((2-Aminopyridin-3-yl)methyl)amino)-9H-xanthen-4-yl)-4-morpholino pyridin-2(1H)-one], 0.1 to 0.5 µM.
In the case of `O=c1cc(N2CCOCC2)cc(-c2cccc3c2Sc2ccc(NCCc4cccnc4)cc2S3)[nH]1` [Example 1-5, 4-morpholino-6-(7-((2-(pyridin-3-yl)ethyl)amino)thianthren-1-yl)pyridin-2(1H)-one], the IC50 fell in the range of 0.1 to 0.5 µM.
On the same count and under the same terms, the value for `CC(Nc1ccc2c(c1)Sc1cccc(-c3cc(N4CCOCC4)cc(=O)[nH]3)c1S2)C1CC1` (stereo not shown) [Example 1-12-43, 6-(7-((1-Cyclopropylethyl)araino)thianthren-1-yl)-4-morpholino pyridin-2(1H)-onc] was 0.5 to 2 µM.
The same measure, in the same setting: the value for `O=c1cc(N2CCOCC2)cc(-c2cccc3c2Sc2ccc(NC4CCCN(Cc5ccncc5)C4)cc2S3)[nH]1` (stereo not shown) [Example 1-24-4, 4-Morpholino-6-(7-((1-(pyridin-4-ylmethyl)piperidin-3-yl)amino)thianthren-1-yl)pyridin-2 (1H)-one] was under 0.1 µM; that for `Cc1ccsc1CNc1ccc2c(c1)Sc1cccc(-c3cc(N4CCOCC4)cc(=O)[nH]3)c1S2` [Example 1-12-59, 6-(7-(((3-Methylthiophen-2-yl)methyl)amino)thianthren-1-yl)-4-morpholino pyridin-2 (1H)-one] was 0.5 to 2 µM.
For `CC(=O)N1CCC(Nc2ccc3c(c2)Sc2cccc(-c4cc(N5CCOCC5)cc(=O)[nH]4)c2S3)CC1` [Example 1-12-115, 6-(7-((1-Acetylpiperidin-4-yl)amino)thianthren-1-yl)-4-morpholino pyridin-2 (1H)-one], the IC50 lay within 0.1 to 0.5 µM.
With `CNc1cncc(CNc2ccc3c(c2)Cc2cccc(-c4cc(N5CCOCC5)cc(=O)[nH]4)c2O3)c1` [Example 2-21-4, 6-(7-(((5-(Methylamino)pyridin-3-yl)methyl)amino)-9H-xanthen-4-yl)-4-morpholino pyridin-2(1H)-one], the IC50 is 0.1 to 0.5 µM.
For `Cn1cc(CNc2ccc3c(c2)Cc2cccc(-c4cc(N5CCOCC5)cc(=O)[nH]4)c2O3)ccc1=O` [Example 2-2-45, 1-Methyl-5-(((5-(4-morpholino-6-oxo-1,6-dihydropyridin-2-yl)-9H-xanthen-2-yl)amino)methyl) pyridin-2(1H)-one], the IC50 was in the range of 0.5 to 2 µM.
On to `CCC(Nc1ccc2c(c1)Sc1cccc(-c3cc(N4CCOCC4)cc(=O)[nH]3)c1S2)c1cncc(OC)c1` (stereo not shown) [Example 1-12-17, 6-(7-((1-(5-Methoxypyridin-3-yl)propyl)amino)thianthren-1-yl)-4-morpholino pyridin-2(1H)-one], for which the IC50 lay within 0.1 to 0.5 µM.
The same measure, in the same setting: the value for `CCOC(=O)CNc1ccc2c(c1)Cc1cccc(-c3cc(N4CCOCC4)cc(=O)[nH]3)c1O2` [Example 2-14-71, Ethyl 2-((5-(4-morpholino-6-oxo-1,6-dihydropyridin-2-yl)-9H-xanthen-2-yl)amino) acetate] was 0.1 to 0.5 µM; that for `Cc1ccc(C(CCN(C)CCO)Nc2ccc3c(c2)Sc2cccc(-c4cc(N5CCOCC5)cc(=O)[nH]4)c2S3)nc1` (single isomer, unassigned) [Example 10-4-1, 6-(7-((3-((2-Hydroxyethyl)(methyl)amino)-1-(5-methylpyridin-2-yl)propyl)amino)thianthren-1-yl)-4-morpholinopyridin-2(1H)-one] was under 0.1 µM.
Take `CN(C)c1ccc(CNc2ccc3c(c2)Cc2cccc(-c4cc(N5CCOCC5)cc(=O)[nH]4)c2O3)cn1` [Example 2-2-8, 6-(7-(((6-(Dimethylamino)pyridin-3-yl)methyl)amino)-9H-xanthen-4-yl)-4-morpholino pyridin-2(1H)-one]: the IC50 lay in the range of 0.1 to 0.5 µM.
Turning to `COc1cncc(C(CO)Nc2ccc3c(c2)Sc2cccc(-c4cc(N5CCOCC5)cc(=O)[nH]4)c2S3)n1` (stereo not shown) [Example 1-12-79, 6-(7-((2-Hydroxy-1-(6-methoxypyrazin-2-yl)ethyl)amino)thianthren-1-yl)-4-morpholino pyridin-2(1H)-one], the IC50 was 0.1 to 0.5 µM.
As to `Cc1ncsc1CNc1ccc2c(c1)Cc1cccc(-c3cc(N4CCOCC4)cc(=O)[nH]3)c1O2` [Example 2-13-2, 6-(7-(((4-Methylthiazol-5-yl)methyl)amino)-9H-xanthen-4-yl)-4-morpholino pyridin-2(1H)-one], the IC50 fell in the range of 0.1 to 0.5 µM.
On the same count and under the same terms, the result for `O=c1cc(N2CCOCC2)cc(-c2cccc3c2Oc2ccc(NCc4ccnc(Cl)c4)cc2S3)[nH]1` [Example 4-8-14, 6-(8-(((2-Chloropyridin-4-yl)methyl)amino)phenoxathiin-4-yl)-4-morpholino pyridin-2(1H)-one] reads 0.1 to 0.5 µM; that for `Cc1ccnc(C(CF)Nc2ccc3c(c2)Sc2cccc(-c4cc(N5CCOCC5)cc(=O)[nH]4)c2S3)c1` (stereo not shown) [Example 1-12-133, 6(7-((2-Fluoro-1-(4-methylpyridin-2-yl)ethyl)amino)thianthren-1-yl)-4-morpholino pyridin-2(1H)-one], 0.1 to 0.5 µM.
On the same count and under the same terms, the value for `O=c1cc(N2CCOCC2)cc(-c2cccc3c2Oc2ccc(NC4CCN(CCc5ccncc5)CC4)cc2C3)[nH]1` [Example 2-30-7, 4-Morpholino-6-(7-((1-(2-(pyridin-4-yl)ethyl)piperidin-4-yl)amino)-9H-xanthen-4-yl)pyridin-2(1H)-one] was 0.1 to 0.5 µM.
For the molecule `CC(C)(C)OC(=O)n1cc(-c2cncc(CNc3ccc4c(c3)Sc3cccc(-c5cc(N6CCOCC6)cc(=O)[nH]5)c3S4)c2)cn1` [Example 1-44-6, tert-Butyl 4-(5-(((6-(4-morpholino-6-oxo-1,6-dihydropyridin-2-yl)thianthren-2-yl)amino)methyl)pyridin-3-yl)-1H-pyrazole-1-carboxylate], the IC50 is under 0.1 µM.
Regarding `O=c1cc(N2CCOCC2)cc(-c2cccc3c2Sc2ccc(NCc4ccsc4)cc2S3)[nH]1` [Example 1-12-1, 4-morpholino-6-(7-((thiophen-3-ylmethyl)amino)thianthren-1-yl)pyridin-2(1H)-one], the IC50 was in the range of 0.1 to 0.5 µM.
Take `CN(C)C1CCC(Nc2ccc3c(c2)Sc2cccc(-c4cc(N5CCOCC5)cc(=O)[nH]4)c2S3)CC1` (stereo not shown) [Example 1-36-2, 6-(7-((4-(Dimethylamino)cyclohexyl)amino)thianthren-1-yl)-4-morpholinopyridin-2(1H)-one]: the IC50 is 0.1 to 0.5 µM.
